Measured values: PubChem BioAssay AID280 (DTP/NCI, 2004)
Values joined by “and” are separate entries in the source; they are usually repeats but may differ in a detail not shown here. Equal entries are not always repeated. Inconclusive results and toxic doses are left out. The calls were made as follows: active = survival T/C of 150% or more; inactive = T/C below 125% in these data.

System: nude mice, LOX melanoma ip, survival T/C
Assay: NCI In Vivo Anticancer Drug Screen. Data for tumor model Human Amelanotic Melanoma (LOX) (intraperitoneal) in NU/NU BALB/C (nude) mice
Settings: endpoint: median survival time, higher = longer survival
Experimental: The antitumor activity of compounds was measured in mice bearing transplantable tumors. Survival or tumor size were measured and the results are expressed as the measurement made in the treated group (T) divided by the measurement made in the vehicle treated control group (C). The tumor model used in this assay is Human Amelanotic Melanoma (LOX) (intraperitoneal) in NU/NU BALB/C (nude) mice

[1] = dose: 50.0 mg/kg/injection, schedule: Q04DX003 (ip), vehicle: Klucel (hydroxypropylcellulose) (HPC)
[2] = dose: 75.0 mg/kg/injection, schedule: Q04DX003 (ip), vehicle: saline with Tween-80
[3] = dose: 300.0 mg/kg/injection, schedule: Q04DX003 (ip), vehicle: saline with Tween-80
[4] = dose: 150.0 mg/kg/injection, schedule: Q04DX003 (ip), vehicle: saline with Tween-80
[5] = dose: 600.0 mg/kg/injection, schedule: Q04DX003 (ip), vehicle: saline with Tween-80

Measured: T/C

CC[C@@H](C)[C@H]([C@H](CC(=O)N1CCC[C@@H]1[C@@H](OC)[C@H](C)C(=O)N[C@H](Cc1ccccc1)c1nccs1)OC)N(C)C(=O)[C@H](NC(=O)[C@@H](C(C)C)N(C)C)C(C)C
active: dose: 3.25 micrograms/kg/injection, schedule: Q04DX003 (ip), vehicle: saline + alcohol 170 % of control | dose: 6.5 micrograms/kg/injection, schedule: Q04DX003 (ip), vehicle: saline + alcohol 206 % of control | dose: 13.0 micrograms/kg/injection, schedule: Q04DX003 (ip), vehicle: saline + alcohol 301 % of control | dose: 15.0 micrograms/kg/injection, schedule: Q04DX003 (ip), vehicle: saline + alcohol 192 % of control | dose: 26.0 micrograms/kg/injection, schedule: Q04DX003 (ip), vehicle: saline + alcohol 181 % of control and 301 % of control | dose: 43.0 micrograms/kg/injection, schedule: Q04DX003 (ip), vehicle: saline + alcohol 340 % of control
inactive: dose: 3.0 micrograms/kg/injection, schedule: Q04DX003 (ip), vehicle: saline + alcohol 109 % of control | dose: 6.0 micrograms/kg/injection, schedule: Q04DX003 (ip), vehicle: saline + alcohol 113 % of control | dose: 9.0 micrograms/kg/injection, schedule: Q04DX003 (ip), vehicle: saline + alcohol 115 % of control

COc1ccc(N=N/N=c2\sc3cc(OC)ccc3n2C)cc1
inactive: dose: 15.0 mg/kg/injection, schedule: Q04DX003 (ip), vehicle: saline with Tween-80 121 % of control | dose: 30.0 mg/kg/injection, schedule: Q04DX003 (ip), vehicle: saline with Tween-80 117 % of control | dose: 120.0 mg/kg/injection, schedule: Q04DX003 (ip), vehicle: saline with Tween-80 121 % of control

CCOC(=O)Nc1cc(NC(C)/C(=N/O)c2ccccc2)c([N+](=O)[O-])c(N)n1 (stereo not given)
inactive: [1] 97 % of control | dose: 51.84 mg/kg/injection, schedule: Q04DX003 (ip), vehicle: Klucel (hydroxypropylcellulose) (HPC) 109 % of control | dose: 86.4 mg/kg/injection, schedule: Q04DX003 (ip), vehicle: Klucel (hydroxypropylcellulose) (HPC) 104 % of control | dose: 144.0 mg/kg/injection, schedule: Q04DX003 (ip), vehicle: Klucel (hydroxypropylcellulose) (HPC) 89 % of control | dose: 240.0 mg/kg/injection, schedule: Q04DX003 (ip), vehicle: Klucel (hydroxypropylcellulose) (HPC) 101 % of control

O=C1c2cccc(NCCNCCO)c2C(=O)c2cccc(NCCNCCO)c21
inactive: dose: 4.69 mg/kg/injection, schedule: Q04DX003 (ip), vehicle: suspension in saline 122 % of control | dose: 9.38 mg/kg/injection, schedule: Q04DX003 (ip), vehicle: suspension in saline 120 % of control

CC/C(=C(\c1ccccc1)c1ccc(OCCN(C)C)cc1)c1ccccc1
inactive: dose: 75.0 mg/kg/injection, schedule: Q04DX003 (ip), vehicle: suspension in saline 109 % of control | dose: 150.0 mg/kg/injection, schedule: Q04DX003 (ip), vehicle: suspension in saline 101 % of control | dose: 300.0 mg/kg/injection, schedule: Q04DX003 (ip), vehicle: suspension in saline 96 % of control | dose: 600.0 mg/kg/injection, schedule: Q04DX003 (ip), vehicle: suspension in saline 95 % of control

O=C(Nc1cc(Cl)ccc1C(=O)O)c1cccc(C[n+]2ccccc2)c1
inactive: dose: 37.5 mg/kg/injection, schedule: Q04DX003 (ip), vehicle: saline with Tween-80 94 % of control and 100 % of control | [2] 105 % of control and 90 % of control | [3] 89 % of control

O=C1C2=C(Nc3cc([N+](=O)[O-])ccc3N2)OC1c1ccccn1 (stereo not given)
inactive: dose: 25.0 mg/kg/injection, schedule: Q04DX003 (ip), vehicle: Klucel (hydroxypropylcellulose) (HPC) 99 % of control | [1] 99 % of control | dose: 100.0 mg/kg/injection, schedule: Q04DX003 (ip), vehicle: Klucel (hydroxypropylcellulose) (HPC) 110 % of control | dose: 200.0 mg/kg/injection, schedule: Q04DX003 (ip), vehicle: Klucel (hydroxypropylcellulose) (HPC) 110 % of control

CC(=O)c1cccc(NC2C(N)C(NC(=O)N(C)C)(C(C)O)C(C)(O)C2(O)COC(=O)c2c(C)cccc2O)c1 (stereo not given)
active: dose: 12.5 mg/kg/injection, schedule: Q04DX003 (ip), vehicle: suspension in saline 173 % of control

NC(=O)c1cc(Cl)nc2nc(Cl)nc(N)c12
inactive: [4] 92 % of control | [3] 111 % of control | [5] 94 % of control

Cc1ccc2c(c1)n([O-])c1cc(Cl)ccc1[n+]2=O
inactive: dose: 50.0 mg/kg/injection, schedule: Q04DX003 (ip), vehicle: saline with Tween-80 111 % of control | dose: 100.0 mg/kg/injection, schedule: Q04DX003 (ip), vehicle: saline with Tween-80 123 % of control | dose: 172.0 mg/kg/injection, schedule: Q04DX003 (ip), vehicle: saline with Tween-80 116 % of control | dose: 288.0 mg/kg/injection, schedule: Q04DX003 (ip), vehicle: saline with Tween-80 108 % of control | dose: 400.0 mg/kg/injection, schedule: Q04DX003 (ip), vehicle: saline with Tween-80 111 % of control | dose: 480.0 mg/kg/injection, schedule: Q04DX003 (ip), vehicle: saline with Tween-80 113 % of control | dose: 800.0 mg/kg/injection, schedule: Q04DX003 (ip), vehicle: saline with Tween-80 107 % of control | dose: 1333.0 mg/kg/injection, schedule: Q04DX003 (ip), vehicle: saline with Tween-80 110 % of control

COC1=C(C)C(=O)C2=C(C1=O)C(CO)N1C(C#N)C3CC4C(C1C2N1CCOC41)N3C (stereo not given)
inactive: dose: 0.63 mg/kg/injection, schedule: Q04DX003 (ip), vehicle: acid diluted with saline 109 % of control | dose: 0.63 mg/kg/injection, schedule: Q04DX003 (ip), vehicle: saline + alcohol 122 % of control | dose: 1.25 mg/kg/injection, schedule: Q04DX003 (ip), vehicle: acid diluted with saline 123 % of control | dose: 2.5 mg/kg/injection, schedule: Q04DX003 (ip), vehicle: acid diluted with saline 115 % of control
active: dose: 2.5 mg/kg/injection, schedule: Q04DX003 (ip), vehicle: saline + alcohol 168 % of control

O=C1CC2(C(=O)N1CN1CCOCC1)c1ccccc1-c1ccccc12
inactive: dose: 75.0 mg/kg/injection, schedule: Q04DX003 (ip), vehicle: Klucel (hydroxypropylcellulose) (HPC) 102 % of control | dose: 150.0 mg/kg/injection, schedule: Q04DX003 (ip), vehicle: Klucel (hydroxypropylcellulose) (HPC) 98 % of control | dose: 300.0 mg/kg/injection, schedule: Q04DX003 (ip), vehicle: Klucel (hydroxypropylcellulose) (HPC) 103 % of control | dose: 600.0 mg/kg/injection, schedule: Q04DX003 (ip), vehicle: Klucel (hydroxypropylcellulose) (HPC) 120 % of control

COc1cccc2c1C(=O)c1c(O)c3c(c(O)c1C2=O)C[C@@](O)(C(=O)CO)C[C@@H]3OC1CC(N)C(O)C(C)O1 (stereo not given in full)
inactive: dose: 4.0 mg/kg/injection, schedule: Q04DX003 (ip), vehicle: saline 107 % of control | dose: 8.0 mg/kg/injection, schedule: Q04DX003 (ip), vehicle: saline 122 % of control | dose: 16.0 mg/kg/injection, schedule: Q04DX003 (ip), vehicle: saline 101 % of control
active: dose: 0.25 mg/kg/injection, schedule: Q01DX015 (ip), vehicle: water 162 % of control | dose: 0.5 mg/kg/injection, schedule: Q01DX015 (ip), vehicle: water 167 % of control | dose: 1.0 mg/kg/injection, schedule: Q01DX005 (ip), vehicle: water 208 % of control | dose: 1.0 mg/kg/injection, schedule: Q01DX015 (ip), vehicle: water 152 % of control | dose: 1.0 mg/kg/injection, schedule: Q04DX003 (ip), vehicle: water 270 % of control | dose: 2.0 mg/kg/injection, schedule: Q01DX001 (ip), vehicle: water 197 % of control | dose: 2.0 mg/kg/injection, schedule: Q04DX003 (ip), vehicle: water 203 % of control | dose: 4.0 mg/kg/injection, schedule: Q01DX001 (ip), vehicle: water 240 % of control | dose: 4.0 mg/kg/injection, schedule: Q04DX003 (ip), vehicle: water 151 % of control | dose: 4.0 mg/kg/injection, schedule: Q04DX003 (iv), vehicle: saline 158 % of control | dose: 8.0 mg/kg/injection, schedule: Q04DX003 (iv), vehicle: saline 275 % of control

CN(C=O)C(C(=O)Nc1cccc2c(OC(=O)C(N(C)C=O)(N(C)C=O)N(C)C=O)c(N=Nc3ccc(S(=O)(=O)Nc4nccs4)cc3)cc(N=Nc3ccc(S(=O)(=O)Nc4nccs4)cc3)c12)(N(C)C=O)N(C)C=O (tested in a mixture with another compound)
inactive: [2] 101 % of control | [4] 99 % of control | [3] 89 % of control | [5] 95 % of control | dose: 1200.0 mg/kg/injection, schedule: Q04DX003 (ip), vehicle: saline with Tween-80 93 % of control
